The results in this text go back to patent US5492918A, “Use of substituted chromans, some of which are known, as medicaments, new active compounds and processes for their preparation” (Bayer Aktiengesellschaft, priority 1993, dated 1996).

Assay [1] concerns the target T1, HIV protease (Human immunodeficiency virus type 1 group M subtype B, UniProt P04585).
T1 construct: purified HIV protease
In words: biochemical. The following applies: for inhibition at 200 µg/mL: read-out: % Inhibition at 200 μg/ml. The procedure: This is confirmed by an HIV-specific protease enzyme test.
The results of the examples shown below were determined by the HIV test system described in the following bibliographical references [cf. Hansen, J., Billich, S., Schulze, T., Sukrow, S. and Molling, K. (1988), EMBO Journal, Vol, 7, No. 6, pp. 1785-1791]: purified HIV protease was incubated with synthetic peptide which imitated a cleavage site in the Gag precursor protein and is an in vivo cleavage site of HIV protease. The resultant cleavage products of the synthetic peptide were analysed by means of reverse phase high performance liquid chromatography (RP-HPLC). The IC50 values indicated relate to the substance concentration which, under the abovementioned test conditions, causes a 50% inhibition of protease activity.

Assay [2] deals with HIV. The experiment in a line: HIV infection in cell culture: suppression of virus-induced syncytia in human blood lymphocytes (PBL). It is filed as cell-based. The note with it: Human immunodeficiency virus 1, 72 h, 50% of virus-induced syncytia suppressed, day 3 to 6 after infection. On the procedure:
The HIV test was carried out with slight modifications by the method of Pauwels et al,. [cf. Journal of Virological Methods 20, (1988) , 309-321].
Normal human blood lymphocytes (PBLs) were concentrated on Ficoll Hypaque and stimulated with phytohaemagglutinin (90 μg/ml) and interleukin-2 (40 U/ml) in RPMI 1640, 20% foetal calf serum. For infection with the infectious HIV, PBLs were pelleted and the cell pellet was then suspended in 1 ml of HIV virus adsorption solution and incubated at 37° C for 1 hour.
Alternatively, HIV-susceptible H9 cells were employed instead of normal human blood lymphocytes for testing of the antiviral effects of the compounds according to the invention.
The virus adsorption solution was centrifuged and the infected cell pellet was taken up in growth medium such that a concentration of 1×10^5 cells per ml was set. The cells infected in this way were pipetted at 1×10^4 cells/well into the wells of 96-well microtitre plates.
The first vertical row of the microtitre plate contained only growth medium and cells which had not been infected but otherwise treated exactly as described above (cell control). […]
The test batches were incubated at 37° C until the syncytia formation typical of HIV occurred in the untreated virus control (between day 3 and 6 after infection), which was then assessed microscopically. […]

The mark [3] stands for this setting: 200 μg/ml, purified HIV protease, synthetic peptide substrate, RP-HPLC.

pIC50: −log10 of the molar value. Read-outs that look alike come from different tables or passages of the source.

On to `O=c1[nH]c2ccccc2n1C1CCN(CC2CCc3cccc(O)c3O2)CC1` (racemic) [Example 33, 8-Hydroxy-2-[4-(2-oxo-1-benzimidazolyl)piperidylmethyl]-chroman], for which the inhibition at 200 µg/mL in assay [1] was 99%.

With `COc1cccc2c1OC(C(=O)N1CCC(NC(=O)Nc3ccccc3)CC1)CC2` (centres unmarked) [Example 1, 8-Methoxy-2-[4-(phenylaminocarbonyl-amino)piperidylcarbonyl]-chroman], the inhibition at 200 µg/mL in assay [1] (setting [3]) came to 99%.

As for `O=C(C1CCc2ccccc2O1)N1CCC(n2c(=O)[nH]c3ccccc32)CC1` (centres unmarked) [Example 21], the inhibition at 200 µg/mL in assay [1] (setting [3]) was 65%.

With `COc1cccc2c1OC(C(=O)N1CCC(n3c(=O)[nH]c4ccccc43)CC1)CC2` (centres unmarked) [Example 24], the inhibition at 200 µg/mL in assay [1] (setting [3]) came out at 99%.

Regarding `COc1cccc2c1O[C@H](C(=O)N1CCC(n3c(=O)[nH]c4ccccc43)CC1)CC2` [Example 25], the inhibition at 200 µg/mL in assay [1] (setting [3]) was determined as 74%.

In the case of `O=c1[nH]c2ccccc2n1C1CCN(CC2CCc3ccccc3O2)CC1` (centres unmarked) [Example 27], the inhibition at 200 µg/mL in assay [1] was 81%.

As to `O=c1[nH]c2ccccc2n1C1CCN(C[C@@H]2CCc3ccccc3O2)CC1` [Example 28], the inhibition at 200 µg/mL in assay [1] worked out at 94%.

Regarding `COc1cccc2c1OC(CN1CCC(n3c(=O)[nH]c4ccccc43)CC1)CC2` (centres unmarked) [Example 30], in assay [2], inhibition was half-maximal at 10 µM (IC50). The compound also had a negative logarithm of the IC50 (pIC50) in assay [1] (50% inhibition of protease activity, purified HIV protease, synthetic peptide substrate) of 9.70. Further, the inhibition at 200 µg/mL in assay [1] is 99%.

`COc1cccc2c1O[C@H](CN1CCC(n3c(=O)[nH]c4ccccc43)CC1)CC2` [Example 31] registered an IC50 in assay [2] of 10 µM.

Usually IC50 stands for the concentration that gives 50% inhibition. One may read the pIC50 as −log10 of the IC50, conventionally taken in molar units. The low end stands for a high IC50, the high end for a low IC50.
